For series [1], the system named is wild type E. coli strain (K-12). Put plainly: Bacteria culture and inhibitory activity assay (MIC). The class given is cell-based. The protocol: (§1) Bacteria culture and inhibitory activity assay: Single esterase (BioH, YjfP, FrsA, YbfF, YfbB, YqiA, YeiG, or and YpfH) deletion mutants were purchased from Dharmacon Horizon Discovery (Cambridge, United Kingdom). […] Compounds were added at different concentrations.
Compounds were added at different concentrations.

The subject of series [2] is esterase (bioH, yjfP, frsA, ybfF, yfbB, ypfH, yeiG, or yqiA) deletion mutants of E. coli. The class given is cell-based. The protocol: Bacteria culture and inhibitory activity assay: Single esterase (BioH, YjfP, FrsA, YbfF, YfbB, YqiA, YeiG, or and YpfH) deletion mutants were purchased from Dharmacon Horizon Discovery (Cambridge, United Kingdom). The K12 wild-type E. coli strain (MG1655) was cultured in autoclaved LB medium (25 g/L LB broth/water) in a shaker-incubator overnight to stationary growth phase, and then sub-cultured in the same medium after dilution to OD600 of 0.05. Compounds were added at different concentrations. The mixture of bacteria and compounds were placed (200 μL/well) into 96-well clear flat bottom plates. In all plates, the OD600 was measured before and after 16 hour incubation at 37° C.
Bacteria culture and inhibitory activity assay: Single esterase (bioH, frsA, ybfF, yfbB, yqiA, yeiG, or ypfH) deletion mutants, bacterial transporter (ydgR, fepA and ompF) deletion mutants and the efflux pump (acrA) deletion mutant were all purchased from Dharmacon Horizon Discovery (Cambridge, United Kingdom). The K12 wild-type E. coli strain (MG1655) was cultured in autoclaved LB medium (25 g/L LB broth/water) in a shaker-incubator overnight to stationary growth phase, and then sub-cultured in the same medium after dilution to OD600 of 0.05. Compounds were added at different concentrations. The mixture of bacteria and compounds were placed (200 μL/well) into 96-well clear flat bottom plates. In all plates, the OD600 was measured before and after a 16 hour incubation at 37° C.

Series [3] can be described thus: Water solubility. The class given is physicochemical.
Series [4] relates to HepG2 cells. As to the kind of experiment: Cell viability assay (MTT), HepG2. It counts as cell-based. Particulars: 20 μM, 24 hours.
In series [5] the test system is YdgR transporter knockout mutants of E. coli. Put plainly: Antibacterial activity against YdgR transporter knockout mutant. Particulars: YdgR mutant versus wild-type E. coli. It counts as cell-based. The protocol: as §1
To verify whether bacterial oligopeptide transporters are involved in the uptake of CLsuGG, the activities of CLsuGG against the YdgR mutant and wild-type E. coli was compared (FIG. 4A). The deletion of YdgR, an inner membrane (IM) proton-coupled transporter for uptaking di- and tripeptides (Prabhala et al., “The Prototypical Proton-Coupled Oligopeptide Transporter YdgR from Escherichia coli Facilitates Chloramphenicol Uptake into Bacterial Cells,” J. Biol. Chem. 293(3):1007-1017 (2018), which is hereby incorporated by reference in its entirety), indeed rescues the bacteria, i.e., increasing cell viability for about 10%.

The test system of series [6] is E. coli (K-12) lysate. Put plainly: Hydrolysis assay with E. coli lysate. It counts as in vitro ADME. Particulars: compound 200 μM. The protocol: (§2) Hydrolysis assay: Wild-type E. coli strains (K12) were harvested by centrifugation and the cell pellets were lysed using a sonic device. After centrifugation, the supernatant was collected and the proteinase inhibitor was added in the E. coli lysate. The concentration of E. coli lysate was normalized by the fluorescence intensity of 5-carboxyfluorescein diacetate (CFDA). Briefly, different concentrations of CES (4 U/mL, 2 U/mL, 1 U/mL, 0.5 U/mL, 0.25 U/mL, 0.125 U/mL, 0.0625 U/mL, 0.03125 U/mL, 0.015625 U/mL and 0 U/mL) and different amount of E. coli lysates were prepared in PBS buffer. Followed by, 25 μM of CFDA was added in and incubated at room temperature for 1 hour. Then the fluorescence was tested to draw a fluorescence-concentration dependent curve for figuring out the concentration of E. coli lysates. Solutions of CLsuGG (200 μM) were prepared in pH 7.4 PBS buffer. CES and E. coli lysate (0.1 U/mL) were added and incubated with above solutions at 37° C. for 24 hours. At different time points, the solution was taken out, extracted with an equal volume of butanol, concentrated to dryness, and resuspended with butanol for HPLC analysis. HPLC was performed with Agilent 1100 Series Liquid Chromatograph equipped with an XTerra C18 reverse phase column and Variable Wavelength Detector. The hydrolyzed mixture resuspended in 1 mL of butanol was injected to HPLC mobile phase (0.1% trifluoroacetic acid, the starting ratio: 10% acetonitrile and 90% water). The system was run at a flow rate of 10 mL/min.
as §2, with “analysis.” for “analysis. HPLC was performed with Agilent 1100 Series Liquid Chromatograph equipped with an XTerra C18 reverse phase column and Variable Wavelength Detector. The hydrolyzed mixture resuspended in 1 mL of butanol was injected to HPLC mobile phase (0.1% trifluoroacetic acid, the starting ratio: 10% acetonitrile and 90% water). The system was run at a flow rate of 10 mL/min.”

The test system of series [7] is HS-5 cells. Put plainly: Cell viability assay (MTT), HS-5. It counts as cell-based, human. Particulars: 24 hours.
The subject of series [8] is double esterase (BioH and YjfP) deletion mutant of E. coli. As to the kind of experiment: Antibacterial activity against double esterase deletion mutant. It counts as cell-based. The protocol: as §1
To examine the roles of different intrabacterial esterases on the hydrolysis of CLsuGG, the activities of CLsuGG against eight E. coli mutants that have one of bacterial esterase genes (i.e., BioH, YjfP, FrsA, YbfF, YeiG, YfbB, YpfH or YqiA) deleted was measured. […] To confirm the role of intrabacterial esterases, a double mutant E. coli was generated, with the deletion of BioH and YjfP genes (FIGS. 5C-5D). […] These studies confirm that, after CLsuGG enters E. coli, various esterases in bacterial cytoplasm rapidly convert CLsuGG to the active antibiotic agent (i.e., CL).

Series [9] concerns HEK293 cells. Put plainly: Cell viability assay (MTT), HEK293. Particulars: 20 μM, 24 hours.
Series [10] deals with carboxylesterase (CES). Put plainly: Hydrolysis assay with exogenous carboxylesterase. The class given is in vitro ADME, porcine. To be noted: CES 0.1 U/mL.
Excerpt: Experimental materials and instruments. All the solvents and chemical reagents were used directly as received from the commercial sources without further purification unless otherwise stated. Carboxylesterase (CES) from porcine liver was purchased from Sigma-Aldrich (lyophilized powder, >15 units/mg solid; Unit definition: One unit will hydrolyze 1.0 μmole of ethyl butyrate to butyric acid and ethanol per min at pH 8.0 at 25). CLsuGG, CLsuG, CLsuGGG were purified with Agilent 1100 Series Liquid Chromatography system, equipped with an XTerra C18 RP column and Variable Wavelength detector.
as §2, with “Briefly, different concentrations of CES (4 U/mL, 2 U/mL, 1 U/mL, 0.5 U/mL, 0.25 U/mL, 0.125 U/mL, 0.0625 U/mL, 0.03125 U/mL, 0.015625 U/mL and 0 U/mL) and different amount of E. coli lysates were prepared in PBS buffer. Followed by, 25 μM of CFDA was added in and incubated at room temperature for 1 hour.” left out, “CES and E. coli lysate (0.1 U/mL) were added and incubated with above solutions at 37° C. for 24 hours.” left out

Series [11] concerns E. coli K-12. Particulars: E. coli K-12, literature values; cited from earlier work.

Values after ≈ are worked out from the molar mass of the structure shown. “Also recorded” adds a separate entry of the source.

Turning to `O=C(O)CNC(=O)CNC(=O)CCC(=O)OCC(NC(=O)C(Cl)Cl)C(O)c1ccc([N+](=O)[O-])cc1` (centres unmarked) [CLsuGG], the “Effect of addition of CES on the MIC value” in series [1] (exogenous CES) was “hardly affected”. Moreover, the “MIC (μM)” value in series [1] (wild type E. coli (K-12)) was 20 µM (≈ 10.7 µg/mL). For the same compound, the “MIC (μg/mL)” value in [1] (wild type E. coli (K-12)) amounted to 10.7 µg/mL (≈ 19.9 µM). Moreover, in series [2], the “reduction of antibacterial activity by single esterase gene deletion” value was “slightly”. Further, the water solubility entry in series [3] was “soluble”. Moreover, the “cytotoxicity / cell viability of HepG2 cells” value in [4] is reported as “hardly altered the cytotoxicity of CL”. Also, the “increase of cell viability by deletion of YdgR” value in series [5] is given as “about 10%”. For the same compound, the “apparent first-order rate constant of hydrolysis” value was -1.868 h⁻¹ in [6] (E. coli lysate 0.1 U/mL, pH 7.4 PBS, 37° C.) and -0.443 h⁻¹ in [10] (compound 200 μM). Moreover, the “time to complete hydrolysis” value in [6] (intrabacterial esterases 0.1 U/mL) is ≤ 2 h; in series [10], “more than 12 hours”. Besides, in [7] (20 μM), the “cytotoxicity / cell viability of HS-5 cells” value was “largely innocuous; also recorded: reduced toxicity”. Moreover, the “antibacterial activity relative to the activity against wild type E. coli” value in series [8] was 50%. Also, in series [9], the “cytotoxicity / cell viability of HEK293 cells” value was “hardly altered the cytotoxicity of CL”. Further, the conversion result in series [10] (after 2 hours) is recorded as “around 70%”.

By MIC is commonly meant the least concentration at which growth counts as inhibited. On to `COc1cc(Cc2cnc(N)nc2N)cc(OC)c1OC` [trimethoprim], for which the “cytotoxicity of control compounds against HS-5 cells” value in series [7] (around MIC values (0.5 μM)) is “relatively low cytotoxicity”. In [11], the MIC was 1 µg/mL (≈ 3.44 µM).
